We go through three molecules from patent publication US20090170851A1, “Chroman Compounds” (priority 2005, published 2009).

One may read the melting point as the temperature, or range, at which the solid turns liquid.

In the case of `CCC(=O)N1CCN(c2ccc(NC(=O)C3CCc4cc(F)cc(N5CCN(C)CC5)c4O3)cc2)CC1` (stereo not drawn) [Example 32, 6-fluoro-8-(4-methylpiperazin-1-yl)-N-(4-(4-proprionyl-piperazin-1-yl)phenyl)chroman-2-carboxamide], the melting point lay within 160 to 165 °C. `COc1cc2c(c(N3CCN(C)CC3)c1)OC(C(=O)Nc1ccc(N3CCN(C)CC3)cc1)CC2` (stereo not drawn) [Example 35, 6-methoxy-8-(4-methylpiperazin-1-yl)-N-(4-(4-methylpiperazin-1-yl)phenyl)chroman-2-carboxamide] had a melting point of 180 to 190 °C. In the case of `CN1CCN(c2ccc(NC(=O)C3CCc4cc(F)cc(N5CCN(C)CC5)c4O3)cc2)CC1` (stereo not drawn) [Example 41, 6-fluoro-8-(4-methylpiperazin-1-yl)-N-(4-(4-methylpiperazin-1-yl)phenyl)chroman-2-carboxamide], the melting point fell in the range of 150 to 160 °C.
